Results taken from paper PMC11613437, “Prioritization of Eleven-Nineteen-Leukemia Inhibitors as Orally Available Drug Candidates for Acute Myeloid Leukemia” (Journal of Medicinal Chemistry, 2024).
Several values for one entry are separate records, joined by “and”; a condition that tells them apart may be missing. Equal values may be shown once. Read-outs that look alike come from different tables or passages of the source.

What was measured:
[1] = biological target: T1, NLuc-ENL YEATS fusion protein (Homo sapiens, UniProt Q03111); assay: NanoBRET apparent tracer affinity; type: cell-based; conditions: HEK293T cells
T1 construct: DNA encoding the ENL YEATS domain (aa 1–148) was cloned into an NLuc containing plasmid; expressed in transfected cells
T1 sequence (Q03111 1-148): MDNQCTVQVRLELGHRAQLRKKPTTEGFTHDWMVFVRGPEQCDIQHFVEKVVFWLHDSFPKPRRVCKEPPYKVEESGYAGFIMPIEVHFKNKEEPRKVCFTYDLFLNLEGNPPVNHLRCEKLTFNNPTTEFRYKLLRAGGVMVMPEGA
Procedure: (§1) Approximately 1.8 × 10^4 HEK293T cells (100 μL) stably expressing NLuc-ENL YEATS were seeded into a white nonbinding 96-well assay plate and incubated overnight at 37 °C in a humidified 5% CO2 atmosphere. After removal of the medium, the cells were added with a tracer (with or without excess of unlabeled compound) in the Opti-MEM with 0.1% DMSO. After incubation at 37 °C for 2 h the assay plate was equilibrated at room temperature for 15 min. For BRET detection, the NanoGlo Substrate and the extracellular NanoLuc inhibitor (Promega, N2160) were diluted with Opti-MEM as described in protocol to afford detection solution. 50 μL of the detection solution was added per well and the plate was incubated for 3 min at room temperature. The donor emission was measured at 450 nm and the acceptor emission at 610 nm using a BioTek SYNERGY neo2 multimode reader. The BRET ratio was calculated according to the following formula: BRET ratio = [(acceptorsample/donorsample) – (acceptorno-tracer control/donorno-tracer control)] × 1000.

ENL YEATS = biological target: T2, ENL YEATS (Homo sapiens, UniProt Q03111); assay: AlphaScreen assay with biotinylated ENL-S1 peptide; conditions: inhibition of ENL YEATS binding to ENL-S1 peptide; mean ± SD, n = 3; read-out: Alpha IC50 (nM) for ENL YEATS
T2 construct: final concentrations of 100 nM His-ENL YEATS, 100 nM Biotin-ENL-S1
T2 sequence (Q03111 1-138 limits assumed): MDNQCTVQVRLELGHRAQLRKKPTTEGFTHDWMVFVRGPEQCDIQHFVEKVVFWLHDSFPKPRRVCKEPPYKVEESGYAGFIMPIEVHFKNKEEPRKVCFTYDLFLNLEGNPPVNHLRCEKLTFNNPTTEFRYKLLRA
Procedure: The AlphaScreen assay was carried out in 384-well plates. Manual assay setup was performed in a 40 μL reaction buffer (50 mM HEPES pH 7.4, 100 mM NaCl, 0.1% bovine serum albumin, and 0.05% CHAPS) with final concentrations of 100 nM His-ENL YEATS, 100 nM Biotin-ENL-S1, and 20 μg/mL of AlphaScreen donor and acceptor beads. The protein, peptide, and compounds were mixed and incubated for 1 h at room temperature and then incubated for 30 min in dark after adding the α beads. AlphaScreen-signals were detected by a multimode microplate reader (BioTeK Synergy Neo2) equipped with an Alpha-laser (PerkinElmer).

ENL YEATS domain [2] = biological target: T3, ENL YEATS domain (Homo sapiens, UniProt Q03111); assay: Biolayer interferometry (BLI); type: binding; conditions: biotinylated ENL YEATS on SSA biosensors, 1:1 model
T3 construct: Biotinylated-ENL YEATS was immobilized onto SSA biosensors; biotin (biotinylated)
T3 sequence (Q03111 1-138 limits assumed): T2 sequence (Q03111 1-138 limits assumed)
Procedure: Superstreptavidin biosensors were first incubated in an assay buffer (20 mM Tris, pH 7.8, 300 mM NaCl, 0.05% Tween 20, 0.1% DMSO) for 15 min. Sensors were coated with 40–60 μg/mL of biotinylated ENL for 15 min at room temperature. Inhibitors were serially diluted across a 96-well plate in a volume of 200 μL. Association of samples to either ENL- or uncoated reference sensors was measured over 300 s and dissociation over 300 s with baseline measurements (buffer only) for 300 s. All assays were run with continuous 1000 rpm shaking. Data were analyzed using the OctetRED data analysis software with reference subtraction in which reference uncoated sensors and reference samples were subtracted. Then, global kinetic fit was performed for all sonogram curves with a 1:1 model to get KD values.

NLuc-ENL YEATS = biological target: T4, NLuc-ENL YEATS (Homo sapiens, UniProt Q03111); assay: ENL-NanoBRET inhibitor competitive assay; type: cell-based; conditions: HEK293T cells stably expressing NLuc-ENL YEATS, 1 μM Tracer 2, 2 h; mean ± SD, n = 3
T4 construct: DNA encoding the ENL YEATS domain (aa 1–148) was cloned into an NLuc containing plasmid; expressed in transfected cells
T4 sequence (Q03111 1-148): T1 sequence (Q03111 1-148)
Procedure: as §1
Sample procedures were followed for cell seeding as described in the previously described tracer affinity assay. After removal of the medium, the cells were added with a tracer in the medium (1.1 μM, 100 μL) and varied concentrations of a test compound in 0.1% DMSO (10 μL). The plate was thoroughly mixed on an orbital shaker for 15 s at 900 rpm. Then the cells were incubated at 37 °C, 5% CO2 for 2 h for BRET ratio detection as described previously.

[3] = Log D at pH 7.4 (chromatographic procedure); type: physicochemical; conditions: n-octanol / aqueous buffer pH 7.4, pH 7.4
Procedure: Log D at 7.4, which is a partition coefficient between n-octanol and aqueous buffer pH 7.4 of the compounds was measured on the chromatographic procedure whose condition was developed based on a published method.[35]

[4] = In vitro stability assay in human plasma; type: in vitro ADME; conditions: 37 °C; for Plasma % of parent compound remaining (after 2h incubation): 5 μM, mean ± SD, n = 3
Procedure: The in vitro stability analysis of a test compound was initiated by the addition of the test compound to 90 μL of prewarmed (37 °C) human plasma with a final concentration of 5 μM. All assays were performed in a plate shaker at 37 °C and conducted in triplicate. At 0, 5, 15, 30, 60, and 120 min, 400 μL acetonitrile (with the internal standard diclofenac as 10 μg/mL) was added to deproteinize the plasma and terminate the reaction, the remaining compound was then analyzed by HPLC-MS/MS.

[5] = In vitro metabolic stability assay in HLM; type: in vitro ADME, human; conditions: for CLint scaled at 1 h / half-life at 1 h: human, human liver microsomes, pH 7.4, HLM 0.5 mg/mL, NADPH 1 mM, mean ± SD, n = 3; for CLint scaled at 1 h: read-out: Liver Microsome CLint, pred; for half-life at 1 h: read-out: Liver Microsome t1/2; for parent compound remaining after 60 min incubation in HLM: in the presence of NADPH
Procedure: At 0, 5, 15, 30, 45, and 60 min, 200 μL acetonitrile (with the internal standard diclofenac as 10 μg/mL) was added to terminate the reaction, the remaining compound was analyzed by HPLC-MS/MS.

[6] = Cell toxicity assay (CCK-8), MOLM-13; type: cell-based; conditions: human, MOLM-13 cells, 8 day treatment, n = 3; read-out: CC50 MOLM-13 (Cellular IC50, 8-days incubation)
Procedure: (§2) Approximately 1 × 10^4 JURKAT, MOLM-13, MV4-11 and HEK293T cells in RPMI 1640 (no phenol red) (100 μL) were added to a 96-well plate and treated with DMSO or a compound at indicated concentrations for 72 h or 8 days. Cell viability was measured using the CCK-8 kit (Abcam, ab228554) according to the manufacturer’s instructions.

MOLM-13 cells [7] = assay: Cell toxicity assay (CCK-8), MOLM-13; type: cell-based; conditions: 8 day treatment, n = 3; read-out: CC50 MOLM-13 (Cellular IC50, 8-days incubation)
Procedure: as §2

[8] = Cell toxicity assay (CCK-8), Jurkat; type: cell-based; conditions: human, Jurkat cells; 8 day treatment, n = 3; read-out: CC50 Jurkat (Cellular IC50, 8-days incubation)
Procedure: as §2

[9] = Cell toxicity assay (CCK-8), HEK293T; type: cell-based; conditions: human, HEK293T cells; 72 h (3-days) treatment, n = 3; read-out: CC50 HEK293T (Cellular IC50, 3-days incubation)
Procedure: as §2

MOLM-13 cells [10] = assay: Anti-proliferation assay, MOLM-13; type: cell-based; conditions: 1 μM, approximately 2 weeks
Procedure: (§3) Cell proliferation assays were carried out in a 96-well tissue culture plate at 2 × 10^4 cells/well for all cell lines except in 200 μL with a compound added as 1:1000 dilution of DMSO stocks in triplicate. Culture density was determined every 3–4 days using the countess automated cell counter, after which 2 × 10^4 live cells were reseeded in fresh media and compound. The cumulative cell count was achieved by back calculation.

MV4-11 cells [11] = assay: Anti-proliferation assay, MV4-11; type: cell-based; conditions: 1 μM, approximately 2 weeks
Procedure: as §3

[12] = Cell toxicity assay (CCK-8), MV4-11; type: cell-based; conditions: human, MV4-11 cells, 8 day treatment, n = 3; read-out: CC50 MV4-11 (Cellular IC50, 8-days incubation)
Procedure: as §2

ENL YEATS domain [13] = biological target: T3, ENL YEATS domain; conditions: cited from earlier work
MV4-11 cells [14] = assay: Cell toxicity assay (CCK-8), MV4-11; type: cell-based; conditions: 8 day treatment, n = 3; read-out: CC50 MV4-11 (Cellular IC50, 8-days incubation)
Procedure: as §2

Molecule | EC50 ([1]; nonspecific signal removed with 80 μM unlabeled compound 20) [nM] | IC50 (ENL YEATS) [nM] | Kd (ENL YEATS domain [2]) [nM] | IC50 (NLuc-ENL YEATS) [nM] | chromatographic logD [3] | Plasma % of parent compound remaining (after 2h incubation) [4] | CLint scaled at 1 h [5] [mL/min/kg] | half-life at 1 h [5] [h] | degradation after 2 h incubation in human plasma [4] | parent compound remaining after 60 min incubation in HLM [5] | affinity profile of tracer for NLuc-ENL YEATS fusion protein ([1]; Figure S5a) | IC50 at 8 days [6] [nM] | IC50 (MOLM-13 cells [7]) [nM] | IC50 at 8 days [8] [nM] | IC50 at 72 h [9] [nM] | inhibition of MOLM-13 cell proliferation (MOLM-13 cells [10]) | inhibition of MV4-11 cell proliferation (MV4-11 cells [11]) | IC50 at 8 days [12] [nM] | Kd (ENL YEATS domain [13]) [nM] | IC50 (MV4-11 cells [14]) [nM]
CC(C)C1CCN1Cc1cc2cnc(NC(=O)c3ccc4nncn4c3)cc2[nH]1 (stereo not shown) [SR-C-107] |  | 121 ± 28 | 565 | 1480 | 0.82 | 90.77% and 90.77 ± 4.67% | 8.69 ± 0.01 | 3.37 ± 0.421 |  |  |  | < 4000 | 2570 ± 280 | > 64000 | > 64000 | strong inhibition of cell proliferation | strong inhibition of cell proliferation |  |  | 
O=C(Nc1cc2[nH]c(CN3CCC3C3CC3)cc2cn1)c1ccc2nncn2c1 [YR-D-121] |  |  | 1340 | 2360 | 0.13 | 82.54 ± 6.09% | 3.51 | 8.29 ± 0.671 | approximately 15% | over 90% |  | 6960 |  | > 64000 | > 64000 |  |  | 14200 |  | 
H3K27cr peptide: commonly used biotinylated H3K27cr peptide for the AlphaScreen assay |  |  |  |  |  |  |  |  |  |  |  |  |  |  |  |  |  |  | 34000 | 

Second part, led by results:

EC50 ([1]; nonspecific signal removed with 80 μM unlabeled compound 20) [nM] | IC50 (ENL YEATS) [nM] | Kd (ENL YEATS domain [2]) [nM] | IC50 (NLuc-ENL YEATS) [nM] | chromatographic logD [3] | Plasma % of parent compound remaining (after 2h incubation) [4] | CLint scaled at 1 h [5] [mL/min/kg] | half-life at 1 h [5] [h] | degradation after 2 h incubation in human plasma [4] | parent compound remaining after 60 min incubation in HLM [5] | affinity profile of tracer for NLuc-ENL YEATS fusion protein ([1]; Figure S5a) | Molecule | IC50 at 8 days [6] [nM] | IC50 (MOLM-13 cells [7]) [nM] | IC50 at 8 days [8] [nM] | IC50 at 72 h [9] [nM] | inhibition of MOLM-13 cell proliferation (MOLM-13 cells [10]) | inhibition of MV4-11 cell proliferation (MV4-11 cells [11]) | IC50 at 8 days [12] [nM] | Kd (ENL YEATS domain [13]) [nM] | IC50 (MV4-11 cells [14]) [nM]
1460 |  |  |  |  |  |  |  |  |  |  | O=C(CCC1=[N+]2C(=Cc3ccc(-c4ccc[nH]4)n3[B-]2(F)F)C=C1)NCCCC(=O)Nc1cccc(-c2cn3cc(C(=O)NC4CCC4)ccc3n2)c1 [Tracer 2, N-Cyclobutyl-2-(3-(4-(3-(5,5-difluoro-7-(1H-pyrrol-2-yl)-5H-4l4,5l4-dipyrrolo[1,2-c:2′,1′-f][1,3,2]diazaborinin-3yl)propanamido)butanamido)phenyl)imidazo[1,2-a]pyridine-6-carboxamide] |  |  |  |  |  |  |  |  | 
 | 183 ± 25 | 645 | 2020 | 0.08 | 83.10 ± 3.49% | 4.76 | 6.15 ± 0.582 | approximately 15% | over 90% |  | C[C@H]1CCCN1Cc1cc2cnc(NC(=O)c3ccc4nncn4c3)cc2[nH]1 [YR-D-120, (S)-N-(2-((2-Methylpyrrolidin-1-yl)methyl)-1H-pyrrolo[3,2-c]pyridin-6-yl)-[1,2,4]triazolo [4,3-a]pyridine-6-carboxamide] | < 4000 | 3610 ± 490 | > 64000 | > 64000 |  |  | < 4000 |  | 3280 ± 650
 |  |  |  |  |  |  |  |  |  | limited affinity profile | O=C(CCC1=[N+]2C(=Cc3ccc(-c4ccc[nH]4)n3[B-]2(F)F)C=C1)NCCCCSc1ccc(CNC(=O)c2ccc3nncn3c2)cc1 [Tracer 1, N-(4-((4-(3-(5,5-Difluoro-7-(1H-pyrrol-2-yl)-5H-4l4,5l4-dipyrrolo[1,2-c:2′,1′-f][1,3,2]diazaborinin-3-yl)propanamido)butyl)thio)benzyl)-[1,2,4]triazolo[4,3-a]pyridine-6-carboxamide] |  |  |  |  |  |  |  |  | 
